This is an account of results in patent US20240383872A1, “NOVEL PYRIDINE AND PYRAZINE COMPOUNDS AS INHIBITORS OF CANNABINOID RECEPTOR 2” (HOFFMANN-LA ROCHE INC., priority 2018, published 2024).

pKi: −log10 of the molar value.

Sequence of human CB2 receptor (CNR2) (P34972 whole entry): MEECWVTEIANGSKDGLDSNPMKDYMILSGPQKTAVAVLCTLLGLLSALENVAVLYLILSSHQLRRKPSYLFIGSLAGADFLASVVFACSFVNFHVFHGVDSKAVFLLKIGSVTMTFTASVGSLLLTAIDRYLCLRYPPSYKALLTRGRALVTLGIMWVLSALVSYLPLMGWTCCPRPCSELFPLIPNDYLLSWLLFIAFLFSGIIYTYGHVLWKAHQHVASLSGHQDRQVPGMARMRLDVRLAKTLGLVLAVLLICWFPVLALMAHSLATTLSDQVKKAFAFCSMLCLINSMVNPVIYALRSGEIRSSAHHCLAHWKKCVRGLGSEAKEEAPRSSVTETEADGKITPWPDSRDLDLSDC

This assay concerns the target human CB2 receptor (CNR2) (Homo sapiens (Human), UniProt P34972). In words: Radioligand binding assay, human CB2. Conditions: HEK cell membranes expressing human CNR2, [3H]-CP-55,940 radioligand. As for the experimental part:
The affinity of the compounds of the invention for cannabinoid CB1 receptors was determined using recommended amounts of membrane preparations (PerkinElmer) of human embryonic kidney (HEK) cells expressing the human CNRI or CNR2 receptors in conjunction with 1.5 or 2.6 nM [3H]-CP-55,940 (Perkin Elmer) as radioligand, respectively. Binding was performed in binding buffer (50 mM Tris, 5 mM MgCl2, 2.5 mM EDTA, and 0.5% (wt/vol) fatty acid free BSA, pH 7.4 for CB1 receptor and 50 mM Tris, 5 mM MgCl2, 2.5 mM EGTA, and 0.1% (wt/vol) fatty acid free BSA, pH 7.4 for CB2 receptor) in a total volume of 0.2 ml for 1 h at 30° C. shaking. The reaction was terminated by rapid filtration through microfiltration plates coated with 0.5% polyethylenimine (UniFilter GF/B filter plate; Packard). Bound radioactivity was analyzed for Ki using nonlinear regression analysis (Activity Base, ID Business Solution, Limited), with the Kd values for [3H]CP55,940 determined from saturation experiments. The compounds of formula (I) show an excellent affinity for the CB2 receptor.
The compounds according to formula (I) have an activity in the above assay (Ki) between 0.5 nM and 10 μM. Particular compounds of formula (I) have an activity in the above assay (Ki) between 0.5 nM and 3 μM. Other particular compounds of formula (I) have an activity in the above assay (Ki) between 0.5 nM and 100 nM.
What is called pKi is the Ki on a negative log10 scale, so that one unit is a factor of ten. High values mean a small Ki, low ones a large Ki. Compound `CCC(CC)(NC(=O)c1ccc(N2CC(OC)C2)c(OCC2CC2)n1)C(=O)OCF` [Example 1, Fluoromethyl 2-{[6-(cyclopropylmethoxy)-5-(3-methoxyazetidin-1-yl)pyridine-2-carbonyl]amino}-2-ethylbutanoate] gave a pKi of 8.70.
For the compound `CCC(CC)(NC(=O)c1ccc(N2CC(OC)C2)c(OCC2CC2)n1)C(=O)OCCF` [Example 2, 2-Fluoroethyl 2-{[6-(cyclopropylmethoxy)-5-(3-methoxyazetidin-1-yl)pyridine-2-carbonyl]amino}-2-ethylbutanoate], the pKi was 8.70.
The compound `CCC(CC)(NC(=O)c1ccc(N2CC(OC)C2)c(OCC2CC2)n1)C(=O)OCCCF` [Example 3, 3-Fluoropropyl 2-{[6-(cyclopropylmethoxy)-5-(3-methoxyazetidin-1-yl)pyridine-2-carbonyl]amino}-2-ethylbutanoate] gave a pKi of 8.22.
Turning to `CCC(CC)(NC(=O)c1ccc(N2CC(F)(F)C2)c(OCC2CC2)n1)C(=O)OCF` [Example 4, Fluoromethyl 2-{[6-(cyclopropylmethoxy)-5-(3,3-difluoroazetidin-1-yl)pyridine-2-carbonyl]amino}-2-ethylbutanoate], the pKi is 8.22.
As to `CCC(CC)(NC(=O)c1ccc(N2CC(F)(F)C2)c(OCC2CC2)n1)C(=O)OCCF` [Example 5, 2-Fluoroethyl 2-{[6-(cyclopropylmethoxy)-5-(3,3-difluoroazetidin-1-yl)pyridine-2-carbonyl]amino}-2-ethylbutanoate], the pKi was 8.15.
Compound `CCC(CC)(NC(=O)c1ccc(N2CC(F)(F)C2)c(OCC2CC2)n1)C(=O)OCCCF` [Example 6, 3-Fluoropropyl 2-{[6-(cyclopropylmethoxy)-5-(3,3-difluoroazetidin-1-yl)pyridine-2-carbonyl]amino}-2-ethylbutanoate] showed a pKi of 7.72.
`CCC(CC)(NC(=O)c1ccc(N2CCCC2)c(OCC2CC2)n1)C(=O)OCCCF` [Example 7, 3-Fluoropropyl 2-{[6-(cyclopropylmethoxy)-5-(pyrrolidin-1-yl)pyridine-2-carbonyl]amino}-2-ethylbutanoate]: the pKi was 8.30.
The compound `CCC(CC)(NC(=O)c1ccc(N2CCCC2)c(OCC2CC2)n1)C(=O)OCF` [Example 8, 3- Fluoromethyl 2-{[6-(cyclopropylmethoxy)-5-(pyrrolidin-1-yl)pyridine-2-carbonyl]amino}-2-ethylbutanoate] gave a pKi of 8.70.
The compound `CCC(CC)(NC(=O)c1ccc(N2CCCC2)c(OCC2CC2)n1)C(=O)OCCF` [Example 9, 2-Fluoroethyl 2-{[6-(cyclopropylmethoxy)-5-(pyrrolidin-1-yl)pyridine-2-carbonyl]amino}-2-ethylbutanoate] gave a pKi of 8.52.
Compound `COC1CN(c2ccc(C(=O)N[C@@H](CC(C)C)C(=O)OCF)nc2OCC2CC2)C1` [Example 10, Fluoromethyl N-[6-(cyclopropylmethoxy)-5-(3-methoxyazetidin-1-yl)pyridine-2-carbonyl]-L-leucinate] gave a pKi of 6.47.
As for `COC1CN(c2ccc(C(=O)N[C@@H](CC(C)C)C(=O)OCCF)nc2OCC2CC2)C1` [Example 11, 2-Fluoroethyl N-[6-(cyclopropylmethoxy)-5-(3-methoxyazetidin-1-yl)pyridine-2-carbonyl]-L-leucinate], the pKi was 7.82.
For `COC1CN(c2ccc(C(=O)N[C@@H](CC(C)C)C(=O)OCCCF)nc2OCC2CC2)C1` [Example 12, 3-Fluoropropyl N-[6-(cyclopropylmethoxy)-5-(3-methoxyazetidin-1-yl)pyridine-2-carbonyl]-L-leucinate], the pKi was 7.34.
Compound `CC(C)C[C@H](NC(=O)c1ccc(N2CCCC2)c(OCC2CC2)n1)C(=O)OCF` [Example 13, Fluoromethyl N-[6-(cyclopropylmethoxy)-5-(pyrrolidin-1-yl)pyridine-2-carbonyl]-L-leucinate] gave a pKi of 7.20.
Then `CC(C)C[C@H](NC(=O)c1ccc(N2CCCC2)c(OCC2CC2)n1)C(=O)OCCF` [Example 14, 2-Fluoroethyl N-[6-(cyclopropylmethoxy)-5-(pyrrolidin-1-yl)pyridine-2-carbonyl]-L-leucinate], with 7.82; and `CC(C)C[C@H](NC(=O)c1ccc(N2CCCC2)c(OCC2CC2)n1)C(=O)OCCCF` [Example 15, 3-Fluoropropyl N-[6-(cyclopropylmethoxy)-5-(pyrrolidin-1-yl)pyridine-2-carbonyl]-L-leucinate], with 7.40; and `CC(C)C[C@@H](COCF)NC(=O)c1ccc(N2CCCC2)c(OCC2CC2)n1` [Example 16, 6-(Cyclopropylmethoxy)-N-[(2S)-1-(fluoromethoxy)-4-methylpentan-2-yl]-5-(pyrrolidin-1-yl)pyridine-2-carboxamide], with 8.10.
Compound `CC(C)C[C@@H](COCCF)NC(=O)c1ccc(N2CCCC2)c(OCC2CC2)n1` [Example 17, 6-(Cyclopropylmethoxy)-N-[(2S)-1-(2-fluoroethoxy)-4-methylpentan-2-yl]-5-(pyrrolidin-1-yl)pyridine-2-carboxamide] gave a pKi of 8.00.
`CC(C)C[C@@H](COCCCF)NC(=O)c1ccc(N2CCCC2)c(OCC2CC2)n1` [Example 18, 6-(Cyclopropylmethoxy)-N-[(2S)-1-(3-fluoropropoxy)-4-methylpentan-2-yl]-5-(pyrrolidin-1-yl) pyridine-2-carboxamide] had a pKi of 7.40.
Turning to `CC(C)[C@@H](COCF)NC(=O)c1ccc(N2CCCC2)c(OCC2CC2)n1` [Example 19, 6-(Cylopropylmethoxy)-N-[(2S)-1-(fluoromethoxy)-3-methylbutan-2-yl]-5-(pyrrolidin-1-yl)pyridine-2-carboxamide], the pKi was 7.15.
`CC(C)[C@@H](COCCF)NC(=O)c1ccc(N2CCCC2)c(OCC2CC2)n1` [Example 20, 6-(Cyclopropylmethoxy)-N-[(2S)-1-(2-fluoroethoxy)-3-methylbutan-2-yl]-5-(pyrrolidin-1-yl)pyridine-2-carboxamide] had a pKi of 7.22.
For the compound `CC(C)[C@@H](COCCCF)NC(=O)c1ccc(N2CCCC2)c(OCC2CC2)n1` [Example 21, 6-(Cyclopropylmethoxy)-N-[(2S)-1-(3-fluoropropoxy)-3-methylbutan-2-yl]-5-(pyrrolidin-1-yl)pyridine-2-carboxamide], the pKi was 6.81.
`C[C@@H](COCF)NC(=O)c1ccc(N2CCCC2)c(OCC2CC2)n1` [Example 22, 6-(Cyclopropylmethoxy)-N-[(2S)-1-(fluoromethoxy)propan-2-yl]-5-(pyrrolidin-1-yl)pyridine-2-carboxamide]: the pKi was 6.10.
Then `C[C@@H](COCCF)NC(=O)c1ccc(N2CCCC2)c(OCC2CC2)n1` [Example 23, 6-(Cyclopropylmethoxy)-N-[(2S)-1-(2-fluoroethoxy)propan-2-yl]-5-(pyrrolidin-1-yl)pyridine-2-carboxamide], with 6.31; and `C[C@@H](COCCCF)NC(=O)c1ccc(N2CCCC2)c(OCC2CC2)n1` [Example 24, 6-(Cyclopropylmethoxy)-N-[(2S)-1-(3-fluoropropoxy)propan-2-yl]-5-(pyrrolidin-1-yl)pyridine-2-carboxamide], with 6.17; and `CC(C)C[C@@H](COCCF)NC(=O)c1ccc(N2CC(F)(F)C2)c(OCC2CC2)n1` [Example 26, 6-(Cyclopropylmethoxy)-5-(3,3-difluoroazetidin-1-yl)-N-[(2S)-1-(2-fluoroethoxy)-4-methylpentan-2-yl]pyridine-2-carboxamide], with 7.62.
